Patent US12065436B2, “Cardiac sarcomere inhibitors” (Cytokinetics, Inc., priority 2018, dated 2024)

Molecular target: bovine cardiac myofibrils (full-length cardiac myosin ATPase in the native sarcomere) (Bos taurus (Bovine), UniProt Q9BE39)
Assay: Skinned bovine cardiac myofibril ATPase assay (PK/LDH-coupled)
Assay type: biochemical
Conditions: Ca2+ activating to 75% of maximal rate; for CDMF75 IC15: concentration giving 15% inhibition; for IC50: read-out: CDMF75 IC50
Method: To evaluate the effect of compounds on the ATPase activity of full-length cardiac myosin in the context of the native sarcomere, skinned myofibril assays were performed. Bovine cardiac myofibrils were obtained by homogenizing bovine cardiac left ventricular tissue in the presence of a detergent such as triton X-100. Such treatment removes membranes and a majority of the soluble cytoplasmic proteins but leaves intact the cardiac sarcomeric acto-myosin apparatus. Myofibril preparations retain the ability to hydrolyze ATP in an Ca^2+ regulated manner. ATPase activities of such myofibril preparations in the presence and absence of compounds were assayed at Ca^2+ concentrations activating to a defined fraction of the maximal rate (i.e., 25%, 75%). Small molecule agents were assessed for their ability to inhibit the steady-state ATPase activity of bovine cardiac myofibrils using pyruvate kinase and lactate dehydrogenase (PK/LDH)-coupled enzyme system. This assay regenerates myosin-produced ADP into ATP by oxidizing NADH, producing an absorbance change at 340 nm. Prior to testing small molecule agents, the bovine cardiac myofibrils were assessed for their calcium responsiveness and the calcium concentration that achieves either a 50% (pCa50) or 75% (pCa75) activation of the myofibril system was chosen as the final condition for assessing the inhibitory activity of the small molecule agents. All enzymatic activity was measured in a buffered solution containing 12 mM PIPES (piperazine-N,N′-bis(2-ethanesulfonic acid), 2 mM magnesium chloride at pH 6.8 (PM 12 buffer). Final assay conditions were 1 mg/mL of bovine cardiac myofibrils, 4 U/mL pyruvate kinase, 6 U/mL lactate dehydrogenase, 50 μM ATP, 0.1 mg/mL BSA (bovine serum albumin), 10 ppm antifoam, 1 mM DTT, 0.5 mM NADH, 1.5 mM PEP, 0.6 mM EGTA, and an amount of CaCl2) sufficient to achieve either 50% or 75% activation of the myofibril ATPase activity.

Sequence of bovine cardiac myofibrils (full-length cardiac myosin ATPase in the native sarcomere) (Q9BE39 whole entry): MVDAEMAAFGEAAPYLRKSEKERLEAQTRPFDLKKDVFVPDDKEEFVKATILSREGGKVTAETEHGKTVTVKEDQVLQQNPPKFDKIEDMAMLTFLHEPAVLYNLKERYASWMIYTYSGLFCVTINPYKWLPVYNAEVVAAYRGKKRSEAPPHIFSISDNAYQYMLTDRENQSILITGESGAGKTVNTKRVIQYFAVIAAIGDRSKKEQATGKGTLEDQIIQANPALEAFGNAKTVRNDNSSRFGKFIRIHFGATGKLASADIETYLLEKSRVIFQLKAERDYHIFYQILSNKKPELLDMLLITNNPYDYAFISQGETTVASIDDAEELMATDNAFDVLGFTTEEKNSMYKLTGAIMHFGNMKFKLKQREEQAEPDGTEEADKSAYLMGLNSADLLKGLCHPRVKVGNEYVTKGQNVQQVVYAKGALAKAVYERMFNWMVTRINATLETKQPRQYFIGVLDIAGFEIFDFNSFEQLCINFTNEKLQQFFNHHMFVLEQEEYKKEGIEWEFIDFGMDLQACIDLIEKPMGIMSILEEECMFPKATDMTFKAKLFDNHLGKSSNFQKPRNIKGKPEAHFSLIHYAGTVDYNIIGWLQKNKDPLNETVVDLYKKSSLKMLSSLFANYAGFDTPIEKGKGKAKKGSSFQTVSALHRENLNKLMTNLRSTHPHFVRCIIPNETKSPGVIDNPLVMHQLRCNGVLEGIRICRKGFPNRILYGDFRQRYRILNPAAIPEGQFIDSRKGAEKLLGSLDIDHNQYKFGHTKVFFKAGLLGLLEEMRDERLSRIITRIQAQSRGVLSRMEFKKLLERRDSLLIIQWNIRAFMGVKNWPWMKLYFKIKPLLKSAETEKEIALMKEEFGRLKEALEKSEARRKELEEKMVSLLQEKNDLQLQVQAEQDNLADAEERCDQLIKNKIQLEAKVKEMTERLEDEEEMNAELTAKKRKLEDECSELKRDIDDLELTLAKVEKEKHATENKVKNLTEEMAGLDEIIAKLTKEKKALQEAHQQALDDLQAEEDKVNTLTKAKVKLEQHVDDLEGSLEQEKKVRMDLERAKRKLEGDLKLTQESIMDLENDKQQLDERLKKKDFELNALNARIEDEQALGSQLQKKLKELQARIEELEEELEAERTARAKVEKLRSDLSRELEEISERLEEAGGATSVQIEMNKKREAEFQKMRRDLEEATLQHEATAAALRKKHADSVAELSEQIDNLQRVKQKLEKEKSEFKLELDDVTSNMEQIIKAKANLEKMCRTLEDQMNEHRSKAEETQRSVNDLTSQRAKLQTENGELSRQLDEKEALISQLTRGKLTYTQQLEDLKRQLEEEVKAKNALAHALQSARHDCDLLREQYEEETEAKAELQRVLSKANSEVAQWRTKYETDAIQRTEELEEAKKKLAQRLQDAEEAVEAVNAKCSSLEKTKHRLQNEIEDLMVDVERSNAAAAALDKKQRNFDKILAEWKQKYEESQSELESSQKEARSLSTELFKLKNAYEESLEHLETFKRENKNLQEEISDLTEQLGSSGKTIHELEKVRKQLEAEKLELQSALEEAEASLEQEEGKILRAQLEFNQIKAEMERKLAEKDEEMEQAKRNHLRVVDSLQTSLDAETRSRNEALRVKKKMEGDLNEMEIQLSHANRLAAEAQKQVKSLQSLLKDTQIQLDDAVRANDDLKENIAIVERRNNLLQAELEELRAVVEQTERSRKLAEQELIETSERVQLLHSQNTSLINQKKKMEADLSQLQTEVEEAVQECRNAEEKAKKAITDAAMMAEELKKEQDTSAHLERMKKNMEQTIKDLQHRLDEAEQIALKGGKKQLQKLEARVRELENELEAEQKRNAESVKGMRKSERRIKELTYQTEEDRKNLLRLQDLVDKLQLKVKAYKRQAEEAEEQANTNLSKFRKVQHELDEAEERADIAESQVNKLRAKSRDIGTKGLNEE
Sequence of bovine cardiac myofibrils (full-length cardiac myosin ATPase in the native sarcomere) (P85100 whole entry partner): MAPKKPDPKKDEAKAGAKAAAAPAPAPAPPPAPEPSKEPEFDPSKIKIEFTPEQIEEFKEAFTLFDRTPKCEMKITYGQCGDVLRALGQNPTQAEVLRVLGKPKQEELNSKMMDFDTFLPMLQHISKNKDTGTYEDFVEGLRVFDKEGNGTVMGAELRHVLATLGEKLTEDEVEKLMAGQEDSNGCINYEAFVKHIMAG
Sequence of bovine cardiac myofibrils (full-length cardiac myosin ATPase in the native sarcomere) (Q3SZE5 whole entry partner): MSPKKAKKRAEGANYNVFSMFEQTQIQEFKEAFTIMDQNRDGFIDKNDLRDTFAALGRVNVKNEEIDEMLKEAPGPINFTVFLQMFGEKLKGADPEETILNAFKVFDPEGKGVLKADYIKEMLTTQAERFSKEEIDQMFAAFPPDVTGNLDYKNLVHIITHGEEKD

SMILES | CDMF75 IC15 [µM] | IC50 [µM]
Cc1nc(-c2ccc3c(c2)CCC3NC(=O)c2ccnc(N)c2)no1 (stereo not drawn) [Compound 33, 2-amino-N-(5-(5-methyl-1,2,4-oxadiazol-3-yl)-2,3-dihydro-1H-inden-1-yl)isonicotinamide] | 1.3 | 4.3
Cc1cc(C(=O)NC2CCc3cc(-c4noc(C)n4)ccc32)on1 (stereo not drawn) [Compound 34, 3-methyl-N-(5-(5-methyl-1,2,4-oxadiazol-3-yl)-2,3-dihydro-1H-inden-1-yl)isoxazole-5-carboxamide] | 2.1 | 8.1
Cn1nccc1C(=O)NC1CCc2cc(-c3noc(C(F)F)n3)ccc21 (stereo not drawn) [Compound 35, N-(5-(5-(difluoromethyl)-1,2,4-oxadiazol-3-yl)-2,3-dihydro-1H-inden-1-yl)-1-methyl-1H-pyrazole-5-carboxamide] | 0.5 | 1.6
O=C(NC1CCc2cc(-c3noc(C(F)F)n3)ccc21)c1cnn2c1CCC2 (stereo not drawn) [Compound 36, N-(5-(5-(difluoromethyl)-1,2,4-oxadiazol-3-yl)-2,3-dihydro-1H-inden-1-yl)-5,6-dihydro-4H-pyrrolo[1,2-b]pyrazole-3-carboxamide] | 0.9 | 4.7
Cc1cc(C(=O)NC2CCc3cc(-c4noc(C(F)F)n4)ccc32)cnn1 (stereo not drawn) [Compound 37, N-(5-(5-(difluoromethyl)-1,2,4-oxadiazol-3-yl)-2,3-dihydro-1H-inden-1-yl)-6-methylpyridazine-4-carboxamide] | 2.1 | 9.7
Cc1nccnc1C(=O)NC1CCc2cc(-c3noc(C(F)F)n3)ccc21 (stereo not drawn) [Compound 38, N-(5-(5-(difluoromethyl)-1,2,4-oxadiazol-3-yl)-2,3-dihydro-1H-inden-1-yl)-3-methylpyrazine-2-carboxamide] | 2.2 | 9.5
Cc1ncccc1C(=O)NC1CCc2cc(-c3noc(C(F)F)n3)ccc21 (stereo not drawn) [Compound 39, N-(5-(5-(difluoromethyl)-1,2,4-oxadiazol-3-yl)-2,3-dihydro-1H-inden-1-yl)-2-methylnicotinamide] | 31.0 | > 39.2
Cn1cc(C(=O)NC2CCc3cc(-c4noc(C(F)F)n4)ccc32)c(C(F)(F)F)n1 (stereo not drawn) [Compound 40, N-(5-(5-(difluoromethyl)-1,2,4-oxadiazol-3-yl)-2,3-dihydro-1H-inden-1-yl)-1-methyl-3-(trifluoromethyl)-1H-pyrazole-4-carboxamide] | 3.9 | 16.2
Cc1cnc(C(=O)NC2CCc3cc(-c4noc(C(F)F)n4)ccc32)c(C)n1 (stereo not drawn) [Compound 41, N-(5-(5-(difluoromethyl)-1,2,4-oxadiazol-3-yl)-2,3-dihydro-1H-inden-1-yl)-3,5-dimethylpyrazine-2-carboxamide] | 6.6 | > 39.2
Cc1nc(-c2cnc3c(c2)CCC3NC(=O)c2ccccc2)no1 (stereo not drawn) [Compound 42, N-(3-(5-methyl-1,2,4-oxadiazol-3-yl)-6,7-dihydro-5H-cyclopental[b]pyridin-7-yl)benzamide] | 7.2 | 31.6
Cc1nc(-c2ccc3c(c2)CCC3NC(=O)c2ccnc(O)c2)no1 (stereo not drawn) [Compound 43, 2-hydroxy-N-(5-(5-methyl-1,2,4-oxadiazol-3-yl)-2,3-dihydro-1H-inden-1-yl)isonicotinamide] | 4.3 | 14.1
Cc1nc(-c2ccc3c(c2)CCC3NC(=O)c2cnn(C)n2)no1 (stereo not drawn) [Compound 44, 2-methyl-N-(5-(5-methyl-1,2,4-oxadiazol-3-yl)-2,3-dihydro-1H-inden-1-yl)-2H-1,2,3-triazole-4-carboxamide] | 3.3 | 12.3
Cc1nc(-c2ccc3c(c2)CCC3NC(=O)c2cnc(C)n2C)no1 (stereo not drawn) [Compound 45, 1,2-dimethyl-N-(5-(5-methyl-1,2,4-oxadiazol-3-yl)-2,3-dihydro-1H-inden-1-yl)-1H-imidazole-5-carboxamide] | 2.1 | 7.6
Cc1nc(-c2ccc3c(c2)CCC3NC(=O)c2cnoc2C)no1 (stereo not drawn) [Compound 46, 5-methyl-N-(5-(5-methyl-1,2,4-oxadiazol-3-yl)-2,3-dihydro-1H-inden-1-yl)isoxazole-4-carboxamide] | 1.2 | 4.2
Cc1cc(C(=O)NC2CCc3cc(-c4noc(C)n4)ccc32)n(C)n1 (stereo not drawn) [Compound 47, 1,3-dimethyl-N-(5-(5-methyl-1,2,4-oxadiazol-3-yl)-2,3-dihydro-1H-inden-1-yl)-1H-pyrazole-5-carboxamide] | 1.4 | 5
Cc1nc(-c2ccc3c(c2)CC[C@H]3NC(=O)c2cnc(C)o2)no1 [Compound 48, (R)-2-methyl-N-(5-(5-methyl-1,2,4-oxadiazol-3-yl)-2,3-dihydro-1H-inden-1-yl)oxazole-5-carboxamide] | 1.4 | 4.9
O=C(NC1CCc2cc(-c3noc(C(F)F)n3)ccc21)c1ccn[nH]1 (stereo not drawn) [Compound 49, N-(5-(5-(difluoromethyl)-1,2,4-oxadiazol-3-yl)-2,3-dihydro-1H-inden-1-yl)-1H-pyrazole-5-carboxamide] | 9.8 | > 39.2
O=C(NC1CCc2cc(-c3noc(C(F)F)n3)ccc21)c1cn[nH]c1 (stereo not drawn) [Compound 50, N-(5-(5-(difluoromethyl)-1,2,4-oxadiazol-3-yl)-2,3-dihydro-1H-inden-1-yl)-1H-pyrazole-4-carboxamide] | 1.5 | 5.2
Cc1nc(-c2ccc3c(c2)CCC3NC(=O)c2ocnc2C)no1 (stereo not drawn) [Compound 51, 4-methyl-N-(5-(5-methyl-1,2,4-oxadiazol-3-yl)-2,3-dihydro-1H-inden-1-yl)oxazole-5-carboxamide] | 1.2 | 3.6
Cc1nc(-c2ccc3c(c2)CCC3NC(=O)c2ocnc2C2CC2)no1 (stereo not drawn) [Compound 52, 4-cyclopropyl-N-(5-(5-methyl-1,2,4-oxadiazol-3-yl)-2,3-dihydro-1H-inden-1-yl)oxazole-5-carboxamide] | 1.6 | 4.9
Cc1nc(-c2ccc3c(c2)CCC3NC(=O)c2oc(C)nc2C)no1 (stereo not drawn) [Compound 53, 2,4-dimethyl-N-(5-(5-methyl-1,2,4-oxadiazol-3-yl)-2,3-dihydro-1H-inden-1-yl)oxazole-5-carboxamide] | 2.5 | 8.8
Cc1nc(-c2ccc3c(c2)CCC3NC(=O)c2cnn(C)c2C)no1 (stereo not drawn) [Compound 54, 1,5-dimethyl-N-(5-(5-methyl-1,2,4-oxadiazol-3-yl)-2,3-dihydro-1H-inden-1-yl)-1H-pyrazole-4-carboxamide] | 2.2 | 7.8
Cc1nc(-c2ccc3c(c2)CCC3NC(=O)c2cn(C)nc2C)no1 (stereo not drawn) [Compound 55, 1,3-dimethyl-N-(5-(5-methyl-1,2,4-oxadiazol-3-yl)-2,3-dihydro-1H-inden-1-yl)-1H-pyrazole-4-carboxamide] | 2.0 | 6.8
CCn1nccc1C(=O)NC1CCc2cc(-c3noc(C)n3)ccc21 (stereo not drawn) [Compound 56, 1-ethyl-N-(5-(5-methyl-1,2,4-oxadiazol-3-yl)-2,3-dihydro-1H-inden-1-yl)-1H-pyrazole-5-carboxamide] | 2.5 | 8.5
Cc1nc(-c2ccc3c(c2)CCC3NC(=O)c2cnn3c2CCC3)no1 (stereo not drawn) [Compound 57, N-(5-(5-methyl-1,2,4-oxadiazol-3-yl)-2,3-dihydro-1H-inden-1-yl)-5,6-dihydro-4H-pyrrolo[1,2-b]pyrazole-3-carboxamide] | 2.8 | 8.9
Cc1cccnc1C(=O)NC1CCc2cc(-c3noc(C(F)F)n3)ccc21 (stereo not drawn) [Compound 58, N-(5-(5-(difluoromethyl)-1,2,4-oxadiazol-3-yl)-2,3-dihydro-1H-inden-1-yl)-3-methylpicolinamide] | 4.8 | 21
Cc1nc(-c2ccc3c(c2)CCC3NC(=O)c2ncccc2C)no1 (stereo not drawn) [Compound 59, 3-methyl-N-(5-(5-methyl-1,2,4-oxadiazol-3-yl)-2,3-dihydro-1H-inden-1-yl)picolinamide] | 5.7 | 28.2
Cc1csc(C(=O)NC2CCc3cc(-c4noc(C(F)F)n4)ccc32)n1 (stereo not drawn) [Compound 60, N-(5-(5-(difluoromethyl)-1,2,4-oxadiazol-3-yl)-2,3-dihydro-1H-inden-1-yl)-4-methylthiazole-2-carboxamide] | 2.3 | 8.3
Cc1ncc(C(=O)NC2CCc3cc(-c4noc(C(F)F)n4)ccc32)n1C (stereo not drawn) [Compound 61, N-(5-(5-(difluoromethyl)-1,2,4-oxadiazol-3-yl)-2,3-dihydro-1H-inden-1-yl)-1,2-dimethyl-1H-imidazole-5-carboxamide] | 1.1 | 3.5
Cc1nc(-c2ccc3c(c2)CCC3NC(=O)Nc2cccnc2)no1 (stereo not drawn) [Compound 62, 1-(5-(5-methyl-1,2,4-oxadiazol-3-yl)-2,3-dihydro-1H-inden-1-yl)-3-(pyridin-3-yl)urea] | 1.5 | 8.7
